Columns and labels:
[1] = test system: acute and slow healing diabetic wounds; assay: Full-thickness punch biopsy wound model, statements covering acute and diabetic wounds together; type: in vivo, mice; settings: histamine applied topically on 5 mm full thickness wounds, covered with Tegaderm or silk dressing, 800 nm NIR laser
Excerpt: (§1) The histamine composition was applied topically on 5-millimeter mid-dorsal full thickness wounds and covered with either Tegaderm™ (transparent film dressing) or a silk dressing and irradiated with 800 nm near infrared laser (NIR) light.
(§2) Post-wounding, the mice were recovered for 7-11 days and their healing kinetics were monitored for different treatment groups.
(§3) An example protocol is as follows. Full-thickness punch biopsy dorsal wounds were created on mice, bioactive wound dressing applied, and the wounds were splinted to prevent wound closure by contraction. Either immunomodulator molecule was delivered on the day of wounding or a later time-point to accelerate wound healing.

acute wounds = assay: Acute wound healing, full-thickness punch biopsy wound model in immunocompetent mice; type: in vivo, BALB/c mice
Excerpt: as §1, §2, §3
FIG. 1 includes images of a wound closure procedure, which was performed with BALB/c mice (about 8-10 weeks old), with a wound size of about 5 mm (n=10), and with a histamine concentration of 3.4 mg/kg per mouse.
Additionally, Elastin-Like Polypeptide (ELP) was used alone as a control. We tested whether ELP in itself influenced healing efficacy. These studies were performed in BALB/c mice (acute wounds), 5 mm wounds, ELP concentration 2 μM (per wound/mouse). Histamine and GFNPs concentration were 3.4 mg/kg and 2 μM, respectively. Histamine and GFNPs concentration were same as previous reported studies. The GFNPs used in this study is SDF1-ELP.
A histamine double dosage control (e.g., two sequential dosage of histamine) was investigated. […] These studies were performed in BALB/c mice (acute wounds) and in 5 mm wounds. Histamine and GFNPs concentration were 3.4 mg/kg and 2 μM, respectively. Histamine and GFNPs concentration were same as previous reported studies. The GFNPs used in this study is SDF1-ELP. We delivered histamine in the following manner: Histamine along with silk fibroin dressing on Day 0 post wounding (like previous studies); Histamine delivered on Day 3 post wounding. Wounds were treated with PBS and silk fibroin film alone on Day 0; Histamine along with silk fibroin on Day 0 post wounding+ second dose of histamine on Day 3 post wounding delivered using subcutaneous injection; and Histamine along with silk fibroin on Day 0 post wounding+ GFNPs delivered sequentially on Day 3 post wounding.

In the case of `NCCc1c[nH]cn1` [histamine], the tissue biomechanical recovery [1] was “improved tissue biomechanical recovery”, the wound area [1] was “Significant reduction in wound area” and the contractile activity (acute wounds; acute wound model) was “higher contractile activity”. The neovascularization (acute wounds; acute wound model) was “higher neovascularization”, the re-epithelialization (acute wounds; acute wound model) was “higher re-epithelialization” and the “reduction of the dermal gap of a wound” value (acute wounds; acute wound model) was “improves reduction of the dermal gap”. The resolution of inflammation (acute wounds; acute wound model) was “better solution of inflammation” and the “tissue strength / ultimate tensile strength (UTS) of healed skin” value (acute wounds; acute wounds, day 7, compared between dressings with histamine or saline) was “higher skin strength recovery”.
